This passage reports IC50 results from US12459940B2, “Oxazole compound as multi-targeted inhibitor of IRAK4 and BTK” (SHANGHAI FOSUN PHARMACEUTICAL INDUSTRIAL DEVELOPMENT CO., …, priority 2019, dated 2025).

pIC50: −log10 of the molar value.

The first test has as its target T1, human IRAK4 (Homo sapiens, UniProt Q9NWZ3).
T1 construct: purchased Reaction Biology Corp
T1 sequence (Q9NWZ3 1-460): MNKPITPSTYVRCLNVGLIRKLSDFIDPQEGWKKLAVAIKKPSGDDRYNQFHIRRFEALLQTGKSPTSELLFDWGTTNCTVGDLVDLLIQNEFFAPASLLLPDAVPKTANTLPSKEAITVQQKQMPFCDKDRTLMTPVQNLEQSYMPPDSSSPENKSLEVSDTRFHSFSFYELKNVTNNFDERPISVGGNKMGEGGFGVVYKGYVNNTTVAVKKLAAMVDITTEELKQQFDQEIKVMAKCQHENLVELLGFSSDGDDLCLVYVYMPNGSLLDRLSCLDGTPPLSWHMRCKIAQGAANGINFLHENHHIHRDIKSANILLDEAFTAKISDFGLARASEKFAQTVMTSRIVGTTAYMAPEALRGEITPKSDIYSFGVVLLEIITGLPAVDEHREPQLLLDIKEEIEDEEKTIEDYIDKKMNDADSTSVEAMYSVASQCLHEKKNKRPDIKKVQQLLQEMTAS
Nature of the test: In vitro IRAK4 kinase activity, 33P isotope-labeled kinase activity assay (Reaction Biology Corp). It is filed as biochemical. The note with it: 33P-ATP, 120 minutes at room temperature; read-out: IRAK4/IC50. The procedure:
The IC50 values were determined using ^33P isotope-labeled kinase activity assay (Reaction Biology Corp) to evaluate the inhibitory ability of the tested compounds on human IRAK4.
(§1) Buffer conditions: 20 mM Hepes (pH 7.5), 10 mM MgCl2, 1 mM EGTA, 0.02% Brij35, 0.02 mg/mL BSA, 0.1 mM Na3VO4, 2 mM DTT, 1% DMSO.
Test procedure: At room temperature, the tested compound was dissolved in DMSO to prepare a 10 mM solution for later use. The substrate was dissolved in a newly prepared buffer solution, and the tested IRAK4 kinase was added thereto and mixed evenly. The DMSO solution dissolved with the tested compound was added to the above reaction mixture mixed evenly using acoustic technique (Echo 550). After incubation for 15 minutes, ^33P-ATP was added to initiate the reaction.
With `[2H]c1c([2H])c([2H])c(-c2cc3nc(CCC(C)(C)O)cn3cc2NC(=O)c2coc(-c3ccnc(C)c3)n2)c([2H])c1[2H]` [WX033], the pIC50 was 8.80.

For `Cc1cc(-c2nc(C(=O)Nc3cn4cc(CCC(C)(C)O)nc4cc3-c3ccccc3C(N)=O)co2)ccn1` [WX027], the pIC50 is 7.96.

Take `CC(C)(O)CCc1cn2cc(NC(=O)c3coc(-c4ccnc(C(N)=O)c4)n3)c(N3CCCCC3)cc2n1` [WX044]: the pIC50 is 8.72.

As for `CC(C)(O)CCc1cn2cc(NC(=O)c3coc(-c4ccnc(C(F)(F)F)c4)n3)c(N3CCCCC3)cc2n1` [WX010], the pIC50 was 8.62.

As to `Cc1cc(-c2nc(C(=O)Nc3cn4cc(CCC(C)(C)O)nc4cc3C3CC3)co2)ccn1` [WX007], the pIC50 is 8.70.

For `Cc1cc(-c2nc(C(=O)Nc3cn4cc(CCC(C)(C)O)nc4cc3N3CCC(C)(C)CC3)co2)ccn1` [WX008], the pIC50 is 8.68.

In the case of `Cc1cc(-c2nc(C(=O)Nc3cn4cc(CCC(C)(C)O)nc4cc3N3CCC(CO)CC3)co2)ccn1` [WX013], the pIC50 is 9.70.

For `Cc1cc(-c2nc(C(=O)Nc3cn4cc(CCC(C)(C)O)nc4cc3N3CCC(C(=O)O)CC3)co2)ccn1` [WX046], the pIC50 is 8.60.

For the molecule `Cc1cc(-c2nc(C(=O)Nc3cn4cc(CCC(=O)O)nc4cc3N3CCC(F)(F)CC3)co2)ccn1` [WX017], the pIC50 was 8.80.

In the next test the target is T2, human BTK (Homo sapiens, UniProt Q06187).
T2 construct: purchased Reaction Biology Corp
T2 sequence (Q06187 whole entry): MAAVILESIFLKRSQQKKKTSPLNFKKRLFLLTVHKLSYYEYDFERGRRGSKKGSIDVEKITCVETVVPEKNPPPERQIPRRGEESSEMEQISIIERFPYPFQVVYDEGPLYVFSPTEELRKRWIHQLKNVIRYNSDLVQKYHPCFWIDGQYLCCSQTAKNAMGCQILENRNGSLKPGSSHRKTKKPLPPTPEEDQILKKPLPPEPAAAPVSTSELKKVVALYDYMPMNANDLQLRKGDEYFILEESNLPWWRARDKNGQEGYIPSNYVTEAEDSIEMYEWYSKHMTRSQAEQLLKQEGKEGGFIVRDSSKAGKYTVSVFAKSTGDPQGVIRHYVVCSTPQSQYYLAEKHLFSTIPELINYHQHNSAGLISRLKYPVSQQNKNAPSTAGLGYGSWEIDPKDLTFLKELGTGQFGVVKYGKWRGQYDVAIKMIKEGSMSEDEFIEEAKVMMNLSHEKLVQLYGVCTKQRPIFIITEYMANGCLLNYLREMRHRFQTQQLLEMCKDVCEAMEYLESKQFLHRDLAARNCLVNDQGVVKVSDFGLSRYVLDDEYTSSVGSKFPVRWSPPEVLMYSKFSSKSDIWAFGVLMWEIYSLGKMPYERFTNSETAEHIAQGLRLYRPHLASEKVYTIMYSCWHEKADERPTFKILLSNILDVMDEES
Nature of the test: In vitro BTK kinase activity, 33P isotope-labeled kinase activity assay (Reaction Biology Corp). It counts as biochemical. The note with it: 33P-ATP, 2 hours at room temperature. The protocol: The IC50 values were determined using ^33P isotope-labeled kinase activity assay (Reaction Biology Corp) to evaluate the inhibitory ability of the tested compounds on human BTK.
as §1
Test procedure: At room temperature, the tested compound was dissolved in DMSO to prepare a 10 mM solution for later use. The substrate was dissolved in a newly prepared buffer solution, and the tested BTK kinase was added thereto and mixed evenly. The compound dissolved in DMSO was added to the kinase reaction mixture through Echo 550 (Acoustic technology; Nanoliter range). After incubation for 20 minutes at room temperature, ^33P-ATP was added to initiate the reaction. The reaction was carried out at room temperature for 2 hours, and the radioactivity of the reaction liquid point was detected by filtration-binding method with P81 ion exchange filter paper. The kinase activity data were expressed by comparing the kinase activity of the group containing the tested compound with the kinase activity of the blank group (only containing DMSO), and the IC50 value was obtained by curve fitting by Prism4 software (GraphPad), the experimental results are shown in Table 10.
`Cc1cc(-c2nc(C(=O)Nc3cn4cc(CCS(C)(=O)=O)nc4cc3N3CCCCC3)co2)ccn1` [WX042] showed a pIC50 of 8.42.

`[2H]c1c([2H])c([2H])c(-c2cc3nc(CCC(C)(C)O)cn3cc2NC(=O)c2coc(-c3ccnc(C)c3)n2)c([2H])c1[2H]` [WX033] gave a pIC50 of 7.69.

`Cc1cc(-c2nc(C(=O)Nc3cn4cc(CCC(C)(C)O)nc4cc3-c3ccc(F)cc3)co2)ccn1` [WX026]: the pIC50 is 7.51.

`Cc1cc(-c2nc(C(=O)Nc3cn4cc(CCC(C)(C)O)nc4cc3-c3c(F)cccc3F)co2)ccn1` [WX029] showed a pIC50 of 7.62.

`Cc1cc(-c2nc(C(=O)Nc3cn4cc(CCC(C)(C)O)nc4cc3N3CCC(C)(C)CC3)co2)ccn1` [WX008] gave a pIC50 of 8.34.

As to `Cc1cc(-c2nc(C(=O)Nc3cn4cc(CCC(C)(C)O)nc4cc3-c3cccs3)co2)ccn1` [WX032], the pIC50 is 7.58.

For `Cc1cc(-c2nc(C(=O)Nc3cn4cc(CCC(C)(C)O)nc4cc3N3CCC(CO)CC3)co2)ccn1` [WX013], the pIC50 is 8.85.

`Cc1cc(-c2nc(C(=O)Nc3cn4cc(CCC(C)(C)O)nc4cc3-c3cccc(Cl)c3)co2)ccn1` [WX031] gave a pIC50 of 7.40.

With `Cc1cc(-c2nc(C(=O)Nc3cn4cc(CCC(C)(C)O)nc4cc3N3CCC(C(=O)O)CC3)co2)ccn1` [WX046], the pIC50 was 7.37.

Another test has as its system TNF-α production in THP-1 cells. Nature of the test: THP-1 cytological TNFa ELISA assay (LPS-stimulated). The note with it: Homo sapiens, TNF-α in culture supernatant, 150 ng/mL LPS, 18 hours. It counts as cell-based. The protocol:
THP-1 human acute […] leukemia cells were purchased from ATCC (Cat #TIB-202) and cultured at 37° C. in 5% CO2 incubator. The composition of medium was RPMI1640 (Gibco, Cat #22400-105), and the supplementary compositions were 10% FBS (Gibco, Cat #10091148); 1% PenStrep (Gibco, Cat #15140); 0.05 mM 2-Mercaptoethanol (Sigma, Cat #M6250).
TNF-α Elisa kit was used to detect the content of TNF-α in cell culture supernatant samples. TNF-α was produced by stimulating THP-1 cells with 150 ng/mL LPS (Sigma, Cat #L6529).
THP-1 cells cultured normally at logarithmic growth stage were seeded in a 96-well plate (Corning #3599) at a certain concentration (1*10^5/100 μL) and then put into a cell incubator for incubation. After two hours, 16.7 μL of different concentrations of the compound to be tested (8*final concentration) were added and incubated in an incubator. After one hour, 16.7 μL of 1200 ng/mL LPS was added and incubated in an incubator. After 18 hours, the culture supernatant samples were collected by centrifugation, and the content of TNF-α could be detected by TNF-α Elisa kit. Finally, OD signals (OD450-OD570) were read on envision board reader.
The OD450-OD570 signal value was converted into a percentage inhibition rate. Inhibition rate %=(ZPE−sample)/(ZPE−HPE)*100.
“HPE” refers to the OD450-OD570 signal value of the control well without LPS stimulated cells, and “ZPE” refers to the OD450-OD570 signal value of the control well with LPS stimulated cells. The IC50 value of the compound was calculated by XLFit in the excel add-in. Y=Bottom+(Top−Bottom)/(1+(IC50/X)^HillSlope). Equation: […]
On the technique in general: ELISA stands for enzyme-linked immunosorbent assay.
`CC(C)(O)CCc1cn2cc(NC(=O)c3coc(-c4ccnc(C(F)(F)F)c4)n3)c(N3CCCCC3)cc2n1` [WX010] showed a pIC50 of 6.48.

Turning to `Cc1cc(-c2nc(C(=O)Nc3cn4cc(CCC(C)(C)O)nc4cc3C3CC3)co2)ccn1` [WX007], the pIC50 is 6.62.

`Cc1cc(-c2nc(C(=O)Nc3cn4cc(CCC(=O)O)nc4cc3N3CCC(F)(F)CC3)co2)ccn1` [WX017] gave a pIC50 of 6.49.

For another test, the system named is OCI-LY10 human B-cell lymphoma cells. Nature of the test: OCI-LY10 cell proliferation inhibition (CellTiter-Glo). It is filed as cell-based. The note with it: OCI-Ly10, 72 h, treated for 3 days. The procedure:
OCI-LY10 human B-cell lymphoma cells were cultured in a 37° C., 5% CO2 incubator. The composition of medium was IMDM (GIBCO, Cat #12440053); the supplementary compositions were 20% FBS (Hyclone, Cat #SH30084.03); 1% PenStrep (Thermo, Cat #SV30010).
The tumor cell lines OCI-LY10 and TMD8 were used to detect the effect of the compound on inhibiting tumor cell proliferation in vitro. The tumor cell line was cultured in a 37° C., 5% CO2 incubator according to the culture conditions shown, and passaged regularly, then the cells in the logarithmic growth phase were taken, counted, and spread in a 96-well plate (the cells in each well were adjusted to an appropriate concentration, a total of […] per well was added). After incubating overnight in a 37° C., 5% CO2 incubator, drugs with different concentration gradients (10 μL of drug solution was added) were added and treated for 3 days, then 50 μL of CellTiter-Glo working solution was added to each well, and the cell plate was wrapped with aluminum foil to avoid light. The culture plate was shaken on an orbital shaker for 2 minutes to induce cell lysis, and placed at room temperature for 10 minutes to stabilize the luminescence signal, then the luminescence signal was detected on the 2104 EnVision plate reader.
The Inhibition rate (IR) of the tested compound was calculated using the following formula: IR (%)=(1−(RLU compound−RLU blank control)/(RLU solvent control−RLU blank control))*100%.
The inhibition rates of different concentrations of the compounds were calculated in Excel, and then the inhibition curves were made by GraphPad Prism software and the related parameters were calculated, including the minimum inhibition rate, the maximum inhibition rate and IC50.
Regarding `Cc1cc(-c2nc(C(=O)Nc3cn4cc(CCC(C)(C)O)nc4cc3-c3ccc(Cl)cc3)co2)ccn1` [WX030], the pIC50 was 6.68.

Molecule `Cc1cc(-c2nc(C(=O)Nc3cn4cc(CCC(C)(C)O)nc4cc3-c3ccc(F)cc3)co2)ccn1` [WX026] gave a pIC50 of 6.46.

Regarding `Cc1cc(-c2nc(C(=O)Nc3cn4cc(CCC(C)(C)O)nc4cc3-c3c(F)cccc3F)co2)ccn1` [WX029], the pIC50 was 6.54.

For `Cc1cc(-c2nc(C(=O)Nc3cn4cc(CCC(C)(C)O)nc4cc3-c3cccs3)co2)ccn1` [WX032], the pIC50 is 6.41.

Molecule `Cc1cc(-c2nc(C(=O)Nc3cn4cc(CCC(C)(C)O)nc4cc3-c3cccc(Cl)c3)co2)ccn1` [WX031] gave a pIC50 of 7.02.
